Experimental data reported in the supplement of paper PMC10627819.

Experiments:
B. subtilis 168 [1] = assay: fitness (endpoint OD595 vs no drug) (fraction); higher = more growth
Outline: (§1)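 Bacterial growth was followed in 384-well plates seeded at OD595 0.01, with 30 µl per well, or 55 µl for S. pneumoniae, in TSB, LB Lennox or CY at 37 °C. OD595 was read every 30 min for 14 h, and each reading had the first reading subtracted as background. Fitness is the background-corrected optical density at entry into stationary phase divided by the robust mean of the no-drug control wells. This ratio is capped at 1.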

S. aureus DSM 20231 [2] = assay: as above
Outline: as §1

S. pneumoniae D39V [3] = assay: as above
Outline: as §1

B. subtilis 168 [4] = assay: Bliss interaction score (quartile over a dose matrix) (fitness difference); higher = more antagonism (negative = synergy)
Outline: (§2)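 Fitness was OD595 at entry into stationary phase divided by the plate's robust no-drug mean and capped at 1; single-drug fitness was inferred from combination data. The Bliss score is observed minus expected (product) fitness, summarised by quartiles over technical, biological and donor/recipient replicates.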

S. aureus DSM 20231 [5] = assay: as above
Outline: as §2

S. aureus Newman = assay: as above
Outline: as §2

S. pneumoniae D39V [6] = assay: as above
Outline: as §2
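Wherever Bliss interaction score (quartile over a dose matrix) is given: first quartile when negative (synergy) and third quartile when positive (antagonism).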

CCC[C@@H]1C[C@@H](C(=O)N[C@@H]([C@H]2O[C@H](SC)[C@H](O)[C@@H](O)[C@H]2O)[C@@H](C)O)N(C)C1 [Lincomycin] + CC1=C\[C@@H](O)CC(=O)Cc2nc(co2)C(=O)N2CCC=C2C(=O)O[C@H](C(C)C)[C@H](C)/C=C/C(=O)NC\C=C\1 [Virginiamycin M1]
Settings	fitness
B. subtilis 168 [1], first compound 0.1 µg/mL, partner 0.0625 µg/mL	0.945
B. subtilis 168 [1], first compound 0.1 µg/mL, partner 0.125 µg/mL	0.936
B. subtilis 168 [1], first compound 0.1 µg/mL, partner 0.25 µg/mL	0.922
B. subtilis 168 [1], first compound 0.2 µg/mL, partner 0.0625 µg/mL	0.91
B. subtilis 168 [1], first compound 0.2 µg/mL, partner 0.125 µg/mL	0.925
B. subtilis 168 [1], first compound 0.2 µg/mL, partner 0.25 µg/mL	0.949
B. subtilis 168 [1], first compound 0.4 µg/mL, partner 0.0625 µg/mL	0.99
B. subtilis 168 [1], first compound 0.4 µg/mL, partner 0.125 µg/mL	0.871
B. subtilis 168 [1], first compound 0.4 µg/mL, partner 0.25 µg/mL	0.985
S. aureus DSM 20231 [2], first compound 0.1 µg/mL, partner 0.0625 µg/mL	0.844
S. aureus DSM 20231 [2], first compound 0.1 µg/mL, partner 0.125 µg/mL	0.857
S. aureus DSM 20231 [2], first compound 0.1 µg/mL, partner 0.25 µg/mL	0.875
S. aureus DSM 20231 [2], first compound 0.2 µg/mL, partner 0.0625 µg/mL	0.73
S. aureus DSM 20231 [2], first compound 0.2 µg/mL, partner 0.125 µg/mL	0.736
S. aureus DSM 20231 [2], first compound 0.2 µg/mL, partner 0.25 µg/mL	0.7
S. aureus DSM 20231 [2], first compound 0.4 µg/mL, partner 0.0625 µg/mL	0.361
S. aureus DSM 20231 [2], first compound 0.4 µg/mL, partner 0.125 µg/mL	0.242
S. aureus DSM 20231 [2], first compound 0.4 µg/mL, partner 0.25 µg/mL	0.267
S. pneumoniae D39V [3], first compound 0.2 µg/mL, partner 2 µg/mL	0.731
S. pneumoniae D39V [3], first compound 0.215 µg/mL, partner 0.5 µg/mL	0.857
S. pneumoniae D39V [3], first compound 0.215 µg/mL, partner 1 µg/mL	0.882
S. pneumoniae D39V [3], first compound 0.215 µg/mL, partner 2 µg/mL	0.836
S. pneumoniae D39V [3], first compound 0.4 µg/mL, partner 2 µg/mL	0.642
S. pneumoniae D39V [3], first compound 0.43 µg/mL, partner 0.5 µg/mL	0.73
S. pneumoniae D39V [3], first compound 0.43 µg/mL, partner 1 µg/mL	0.781
S. pneumoniae D39V [3], first compound 0.43 µg/mL, partner 2 µg/mL	0.741
S. pneumoniae D39V [3], first compound 0.8 µg/mL, partner 2 µg/mL	0.333
S. pneumoniae D39V [3], first compound 0.86 µg/mL, partner 0.5 µg/mL	0.268
S. pneumoniae D39V [3], first compound 0.86 µg/mL, partner 1 µg/mL	0.207
S. pneumoniae D39V [3], first compound 0.86 µg/mL, partner 2 µg/mL	0.195

fitness, one replicate
Settings	first compound 0.1 µg/mL	first compound 0.2 µg/mL	first compound 0.4 µg/mL	first compound 0.8 µg/mL
S. aureus DSM 20231 [2], partner 0.5 µg/mL	0.878	0.66	0.3	–
S. aureus DSM 20231 [2], partner 1 µg/mL	0.7	0.486	0.238	–
S. pneumoniae D39V [3], partner 0.15 µg/mL	–	0.807	0.694	0.596
S. pneumoniae D39V [3], partner 0.3 µg/mL	–	0.796	0.657	0.573
S. pneumoniae D39V [3], partner 0.5 µg/mL	–	0.8	0.761	0.449
S. pneumoniae D39V [3], partner 1 µg/mL	–	0.71	0.655	0.416

Settings	Bliss interaction score
B. subtilis 168 [4]	-0.0247
S. aureus DSM 20231 [5]	-0.0744
S. aureus Newman	0.0588
S. pneumoniae D39V [6]	-0.0882

CCC[C@@H]1C[C@@H](C(=O)N[C@@H]([C@H]2O[C@H](SC)[C@H](O)[C@@H](O)[C@H]2O)[C@@H](C)O)N(C)C1 [Lincomycin] + CC(=O)NC[C@H]1CN(c2ccc(N3CCOCC3)c(F)c2)C(=O)O1 [Linezolid]
Settings	fitness
B. subtilis 168 [1], first compound 0.1 µg/mL, partner 0.5 µg/mL	0.0626
B. subtilis 168 [1], first compound 0.2 µg/mL, partner 0.125 µg/mL	0.643
B. subtilis 168 [1], first compound 0.2 µg/mL, partner 0.5 µg/mL	0.0527
B. subtilis 168 [1], first compound 0.4 µg/mL, partner 0.125 µg/mL	0.629
B. subtilis 168 [1], first compound 0.4 µg/mL, partner 0.5 µg/mL	0.0589
S. aureus DSM 20231 [2], first compound 0.1 µg/mL, partner 0.125 µg/mL	0.824
S. aureus DSM 20231 [2], first compound 0.1 µg/mL, partner 0.25 µg/mL	0.628
S. aureus DSM 20231 [2], first compound 0.1 µg/mL, partner 0.5 µg/mL	0.276
S. aureus DSM 20231 [2], first compound 0.2 µg/mL, partner 0.125 µg/mL	0.583
S. aureus DSM 20231 [2], first compound 0.2 µg/mL, partner 0.5 µg/mL	0.192
S. aureus DSM 20231 [2], first compound 0.4 µg/mL, partner 0.125 µg/mL	0.244
S. aureus DSM 20231 [2], first compound 0.4 µg/mL, partner 0.25 µg/mL	0.146
S. aureus DSM 20231 [2], first compound 0.4 µg/mL, partner 0.5 µg/mL	0.0893
S. pneumoniae D39V [3], first compound 0.2 µg/mL, partner 0.105 µg/mL	0.717
S. pneumoniae D39V [3], first compound 0.2 µg/mL, partner 0.21 µg/mL	0.658
S. pneumoniae D39V [3], first compound 0.2 µg/mL, partner 0.42 µg/mL	0.519
S. pneumoniae D39V [3], first compound 0.215 µg/mL, partner 0.2 µg/mL	0.716
S. pneumoniae D39V [3], first compound 0.215 µg/mL, partner 0.4 µg/mL	0.649
S. pneumoniae D39V [3], first compound 0.215 µg/mL, partner 0.8 µg/mL	0.413
S. pneumoniae D39V [3], first compound 0.4 µg/mL, partner 0.105 µg/mL	0.627
S. pneumoniae D39V [3], first compound 0.4 µg/mL, partner 0.21 µg/mL	0.601
S. pneumoniae D39V [3], first compound 0.4 µg/mL, partner 0.42 µg/mL	0.234
S. pneumoniae D39V [3], first compound 0.43 µg/mL, partner 0.2 µg/mL	0.642
S. pneumoniae D39V [3], first compound 0.43 µg/mL, partner 0.4 µg/mL	0.583
S. pneumoniae D39V [3], first compound 0.43 µg/mL, partner 0.8 µg/mL	0.306
S. pneumoniae D39V [3], first compound 0.8 µg/mL, partner 0.105 µg/mL	0.278
S. pneumoniae D39V [3], first compound 0.8 µg/mL, partner 0.21 µg/mL	0.128
S. pneumoniae D39V [3], first compound 0.8 µg/mL, partner 0.42 µg/mL	0.0738
S. pneumoniae D39V [3], first compound 0.86 µg/mL, partner 0.2 µg/mL	0.392
S. pneumoniae D39V [3], first compound 0.86 µg/mL, partner 0.4 µg/mL	0.311
S. pneumoniae D39V [3], first compound 0.86 µg/mL, partner 0.8 µg/mL	0.13

fitness, one replicate
Settings	first compound 0.1 µg/mL	first compound 0.2 µg/mL	first compound 0.4 µg/mL	first compound 0.8 µg/mL	first compound 1.6 µg/mL
B. subtilis 168 [1], partner 0.0625 µg/mL	–	–	0.87	0.867	0.847
B. subtilis 168 [1], partner 0.125 µg/mL	–	–	–	0.633	0.638
B. subtilis 168 [1], partner 0.25 µg/mL	–	–	–	0.102	0.0942
S. aureus DSM 20231 [2], partner 1 µg/mL	0.0602	0.0846	0.0423	–	–

Settings	Bliss interaction score
B. subtilis 168 [4]	0.158
S. aureus DSM 20231 [5]	-0.069
S. aureus Newman	-0.088
S. pneumoniae D39V [6]	0.0482
